Data as given in patent publication US20180325850A1 (The Regents of the University of Michigan, priority 2017, published 2018).

Assays:
Format in all cases: in vivo, rat
[1] = tested on: IR rats; assay: Long-term (4-week) oral VPA treatment of IR rats, EF and FS; conditions: oral VPA 250 mg/kg twice daily for 4 weeks, versus IR control animals
Protocol: In addition, long-term (4-week) treatment of VPA was performed to IR rats.

[2] = tested on: MI rats generated by ischemia reperfusion; assay: Myocardial infarct size by triphenyltetrazolium chloride (TTC) staining; conditions: two shots of VPA within 24 h of IR injury; versus saline controls
Protocol: Myocardial infarct size was determined by triphenyltetrazolium chloride (TTC) staining. The hearts were frozen rapidly and sliced into five 2 mm transverse sections. The sections were incubated at 37° C. with 1% TTC in phosphate buffer (pH 7.4) for 10 min, fixed in 10% formaldehyde solution, photographed and calculated using ImageJ software. The infarct size was expressed as a percentage of infarct volume versus left ventricle volume.

[3] = tested on: MI rats generated by ischemia reperfusion; assay: Echocardiography of heart function (EF, FS) after ischemia reperfusion MI
Protocol: 24 h post coronary ligation, a MI size of 33.59±3.54% of the left ventricle was induced in rats. […] Left ventricular internal diameter end diastole (LVIDd) and end systole (LVIDs) were measured perpendicularly to the long axis of the ventricle. EF and FS were calculated according to LVIDd and LVIDs.

[4] = tested on: IR rats; assay: Plasma biochemical assay of LDH and creatine kinase (MI injury biomarkers); conditions: 24 h after VPA treatment
Protocol: To determine the possible protective effect of VPA after MI, MI rats were generated by ischemia reperfusion and VPA was administrated to the animals. […] Intra-peritoneal injection of 250 mg/kg VPA was conducted immediately after and 12 h after coronary ligation. Heart functional assays, MI assessment, and physiological assays were performed 24 h after VPA administration.

[5] = tested on: Foxm1; assay: RNA-seq of whole hearts one day after IR
From the text: Recent studies indicate that neonatal CMs proliferate much more potently than adult CMs and Foxm1 appears to be a key factor in regulating neonatal CM proliferation by controlling Igf1 and cell cycle genes (Ref. 44; incorporated by reference in its entirety). […] These genes are mostly proliferation related genes. Other potential targets include anti-oxidative, pro-fibrotic, and CM structural genes. Foxm1 has also been reported to work with YAP1 to activate proliferation genes (Ref. 46; incorporated by reference in its entirety).

[6] = IR rats, 250 mg/kg VPA intra-peritoneal immediately after and 12 h after coronary ligation, echocardiography at 24 h

`CCCC(CCC)C(=O)O` [VPA, valproic acid] was tested, and the “effect on ventricular remodeling and pumping function (EF, FS)” value [1] was “protected the MI hearts from ventricular remodeling and weakening of the pumping function”, the “reduction of infarct size” value [2] was “around 45%” and the “fractional shortening (FS)” value [3, 6] was 33.21±4.46%. The “left ventricle ejection fraction (EF)” value [3, 6] was 60.60±6.18%, the “rescue of the functional loss caused by acute IR injury” value ([3]; VPA treatment within 12 h of IR injury, from EF and FS) was “roughly 50%” and the “plasma LDH release” value [4] was 63.07±23.83 U/L. For the same molecule, the “plasma creatine kinase (CK) release” value [4] was 158.31±43.53 U/L and the “Foxm1 expression, IR+VPA group versus no IR group” value [5] was 8 fold.
